Like-named read-outs stand apart in the source and are kept apart here.

We go through two molecules from paper PMC3989846 (Malaria Journal, 2014).

On the set-up of data set [1]: method as in PMID 9598455. Particulars: cited from earlier work.
Data set [2] is described as follows: Liver tissue distribution pharmacokinetics after single intravenous or intragastric dose. The format is in vivo, male ICR mice. Particulars: for Kp: liver/plasma, read-out: AUCinf ratio (liver/plasma); for half-life: read-out: t1/2 elimination (converted). On the procedure: PK studies were performed using both intravenous (IV) and intragastric (IG) administration. For each time point to be acquired, three male ICR mice per time-point, aged seven weeks, were dosed at either PQ or TQ at 5 mg/kg (IV) or 20 mg/kg (IG). Drug vehicle for IV studies was 0.9% saline solution, and the formulated drugs were administered in a volume of 100 μL/20 g of body weight. For IG dosing, the drug vehicle was 0.5% HECT, administered at 100 μL/20 g. At each time point, plasma and liver samples were collected. Whole blood was collected by cardiac puncture. […] Following the separation of appropriate aliquots, plasma was obtained from the whole blood via centrifugation. All liquid and tissue samples were immediately preserved on dry ice and lately stored at -80°C until analytical work was performed.
Blank liver homogenate was prepared by adding 5 mL of water for each gram of liver, then the mixture was homogenized using an ultra-sonication probe (VCX 750, Sonics & Materials, Inc., Newtown, CT). […] The serial dilutions for analysis also included the preparation of 4–5 QC samples at a low range point and a high range point (generally 10 ng/mL and 100 ng/mL, respectively). Once the standard curve dilutions were prepared, a 100 μL aliquot was removed and extracted with 200 μL acetonitrile. The extracted samples were centrifuged at 10,000 rpm for 10 min and the supernatant was removed for analysis by LC-MS/MS. Sample drug concentrations were first interpolated from the standard curve, then multiplied by a factor of 6 to account for the drug levels present in the liver prior to dilution with water for homogenization.
Chromatography was performed using a Surveyor pump (Thermo Scientific, Waltham, MA) with Waters XTerra MS C18 50 mm × 2.1 mm id, 3.5 μm particle size columns (Waters Corp., Milford, MA). Mobile phase consisted of a water/0.1% formic acid (Solvent A)/acetonitrile/0.1% formic acid (Solvent B) gradient. […] Flow rate was 300 μL/min. Samples were injected using an HTC PAL autosampler (LEAP Technologies, Carrboro, NC). Tandem mass spectrometry was performed using a TSQ Quantum AM (Thermo Scientific).
Drug concentrations were generated for each sample taken from animals dosed with both test drugs. A measured plasma and liver drug concentration vs. time curve was produced, in graphic and tabular form, for each subject on both linear/linear and log/linear scales, for the parent compound. Mean plasma drug concentration vs. time curves were also prepared separately. For the determination of initial approach to PK parameters of TQ and PQ in plasma and liver tissues after systemic application, a non-compartmental analysis was performed using Phoenix (version 6.1; Pharsight Corp., Mountain View, CA). Maximum plasma and liver concentration (Cmax), and time to maximum concentration (tmax) of TQ and PQ were obtained from the plasma and liver drug concentration-time curves. The elimination half-life (t1/2) was calculated from In2/kel, which is the elimination rate constant calculated from the log concentration-time plot. The area under the curve (AUC) and the area under the first moment curve (AUMC) were determined by the linear trapezoidal rule with extrapolation to infinity based on the concentration of the last time point divided by the terminal rate constant. Mean clearance rate (CL) was determined by dividing the dose by the AUCinf for intravenous injection for plasma samples. Absolute bioavailability was calculated by taking the dose-corrected area under the curve (AUC) from non-intravenous dosing divided by the AUC derived from intravenous dosing. Mean residence time (MRT) was determined by dividing the area under the first moment curve (AUMC) by AUC. The volume of the central compartment (Vz) and volume of the tissue compartment (Vz/F) were calculated as the product of CL and MRT.

On the set-up of data set [3]: method as in PMID 9598455. Particulars: simulated gastric fluid; cited from earlier work.
The mark [4] stands for this setting: male, ICR, mouse, po, intragastric 20 mg/kg, liver.
Setting [5] is: male, ICR, mouse, intravenous 5 mg/kg, liver.

As for `COc1cc(NC(C)CCCN)c2ncccc2c1` (stereo not drawn) [Primaquine, primaquine], in data set [1], the “dose excreted as unchanged drug in the urine” value is “less than 1%”.
As a reminder, the Cmax is the highest concentration seen after dosing. Usually MRT stands for a mean duration of stay, worked out from the concentration-time curve. For orientation: Tmax means the time at which the peak concentration occurs. As for `COc1cc(C)c2c(Oc3cccc(C(F)(F)F)c3)c(OC)cc(NC(C)CCCN)c2n1` (stereo not drawn) [Tafenoquine, tafenoquine], the Cmax in data set [2] (ICR, mouse, intravenous 5 mg/kg, liver, male mice (head: μg/mL or g), read-out: Cmax) was found to be 44800 ± 30000 ng/g; in data set [2] (intragastric 20 mg/kg, liver) it was 56.90 ± 26.09 µg/mL; in data set [2] (male, ICR, mouse, single oral dose 20 mg/kg, liver, read-out: Cmax), 56900 ng/g. Further, the “AUCinf ratio (liver/plasma)” value in data set [2] (intragastric 20 mg/kg) worked out at 48.91 ± 22.67; in data set [2] (intravenous 5 mg/kg, 5 mg/kg) it was 87.24 ± 44.29. In data set [2] (intravenous 5 mg/kg, liver (μg · h/mL or g)), this molecule displayed an AUClast of 2493.82 ± 1361.10 µg·h/g. For the same molecule, the AUCinfininty amounted to 2544.96 ± 1348.03 µg·h/g in data set [2] (intravenous 5 mg/kg, liver (μg · h/mL or g), 5 mg/kg) and 2544.96 µg·h/g in data set [2] (intravenous 5 mg/kg, liver (μg · h/mL or g), listed as TQ, 5 mg/kg). For the same molecule, the Kp is 48.9 in data set [2] (male, ICR, mouse, po, intragastric 20 mg/kg) and 87.2 in data set [2] (male, ICR, mouse, intravenous 5 mg/kg). Besides, the values for the MRT in data set [2] (setting [4]) and in data set [2] (setting [5]) were 88.7 ± 13 h and 66.1 ± 19.2 h, respectively. In addition, the figures for the Tmax in data set [2] (setting [4]) and in data set [2] (setting [5]) were 1.17 ± 0.76 h and 3.69 ± 2.29 h, respectively. In addition, the half-life in data set [2] (setting [4]) is 75.5 ± 12.1 h; in data set [2] (setting [5]), 70 ± 4.35 h. Moreover, in data set [2] (oral, liver), the “Cmax of orally dosed TQ, fold higher than PQ in liver tissue” value is approximately 7 fold. The “elimination half-life of oral TQ, fold longer than oral PQ in the liver” value in data set [2] (oral, liver) came to 17.6 fold. In data set [2] (single oral dose 20 mg/kg, liver), the AUCinf was found to be 5391.86 µg·h/g. For the same molecule, the “time to complete dissolution” value in data set [3] was not above 30 min.
